Measured values: the supplement of paper PMC10307832

Key:
Experiment in all cases: relative viability (nuclei count vs DMSO), 5 days (fraction); higher = more cells survive
NCI-H650 = system: NCI-H650
Method in brief: (§1)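 Lung cancer cell lines in 1536-well plates were dosed by pin tool the day after seeding, either with one drug alone or with a fixed anchor-drug dose plus five library-drug doses (not always all listed) in √10 steps. After 5 days, cells were fixed and their nuclei stained in one step (final 0.05% Triton X-100, 1% formaldehyde, 1 ug/ml Hoechst), then counted on 4× images. Relative viability is the nuclei count in treated wells divided by that in vehicle wells. Values are medians of duplicate plates.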

NCI-H1915 = system: NCI-H1915
Method in brief: as §1

201T = system: 201T
Method in brief: as §1

LCLC-97TM1 = system: LCLC-97TM1
Method in brief: as §1

NCI-H3122 = system: NCI-H3122
Method in brief: as §1

NCI-H1944 = system: NCI-H1944
Method in brief: as §1

NCI-H1563 = system: NCI-H1563
Method in brief: as §1

NCI-H838 = system: NCI-H838
Method in brief: as §1

SW 1573 = system: SW 1573
Method in brief: as §1

NCI-H1651 = system: NCI-H1651
Method in brief: as §1

NCI-H2347 = system: NCI-H2347
Method in brief: as §1

BEN = system: BEN
Method in brief: as §1

HOP-62 = system: HOP-62
Method in brief: as §1

NCI-H1395 = system: NCI-H1395
Method in brief: as §1

HCC-78 = system: HCC-78
Method in brief: as §1

LOU-NH91 = system: LOU-NH91
Method in brief: as §1

NCI-H2126 = system: NCI-H2126
Method in brief: as §1

NCI-H1793 = system: NCI-H1793
Method in brief: as §1

SK-LU-1 = system: SK-LU-1
Method in brief: as §1

NCI-H1355 = system: NCI-H1355
Method in brief: as §1

CAL-12T = system: CAL-12T
Method in brief: as §1

NCI-H322M = system: NCI-H322M
Method in brief: as §1

Question: With CN1CCN(CCOc2cc(OC3CCOCC3)c3c(Nc4c(Cl)ccc5c4OCO5)ncnc3c2)CC1 [Saracatinib] + CS(=O)(=O)CCNCc1ccc(-c2ccc3ncnc(Nc4ccc(OCc5cccc(F)c5)c(Cl)c4)c3c2)o1 [Lapatinib] (partner 2 µM) as the compound, how does the relative viability (NCI-H650; first compound 0.02 µM) read?
Answer: The relative viability was 1.

Question: What about the relative viability (NCI-H650; first compound 0.2 µM) of the same compound?
Answer: The relative viability was 0.85.

Question: And the relative viability (NCI-H650; first compound 0.6325 µM)?
Answer: The relative viability was 0.928.

Question: What about the relative viability (NCI-H650; first compound 2 µM) of the same compound?
Answer: Its relative viability is 1.17.

Question: And the relative viability (NCI-H1915; first compound 0.02 µM)?
Answer: Its relative viability is 0.987.

Question: And the relative viability (NCI-H1915; first compound 0.2 µM)?
Answer: The relative viability was 0.917.

Question: What about the relative viability (NCI-H1915; first compound 0.6325 µM) of the same compound?
Answer: The relative viability was 0.955.

Question: What about the relative viability (NCI-H1915; first compound 2 µM) of the same compound?
Answer: The relative viability was 0.819.

Question: And the relative viability (201T; first compound 0.02 µM)?
Answer: Its relative viability is 1.

Question: And the relative viability (201T; first compound 0.2 µM)?
Answer: Its relative viability is 0.856.

Question: And the relative viability (201T; first compound 0.6325 µM)?
Answer: The relative viability was 0.998.

Question: And the relative viability (201T; first compound 2 µM)?
Answer: The relative viability was 0.859.

Question: And the relative viability (LCLC-97TM1; first compound 0.02 µM)?
Answer: Its relative viability is 1.34.

Question: What about the relative viability (LCLC-97TM1; first compound 0.2 µM) of the same compound?
Answer: Its relative viability is 0.771.

Question: And the relative viability (LCLC-97TM1; first compound 0.6325 µM)?
Answer: Its relative viability is 0.861.

Question: What about the relative viability (LCLC-97TM1; first compound 2 µM) of the same compound?
Answer: The relative viability was 0.401.

Question: What about the relative viability (NCI-H3122; first compound 0.02 µM) of the same compound?
Answer: The relative viability was 1.03.

Question: What about the relative viability (NCI-H3122; first compound 0.6325 µM) of the same compound?
Answer: The relative viability was 0.894.

Question: And the relative viability (NCI-H3122; first compound 2 µM)?
Answer: The relative viability was 0.781.

Question: What about the relative viability (NCI-H1944; first compound 0.02 µM) of the same compound?
Answer: The relative viability was 0.808.

Question: And the relative viability (NCI-H1944; first compound 0.6325 µM)?
Answer: The relative viability was 0.872.

Question: What about the relative viability (NCI-H1944; first compound 2 µM) of the same compound?
Answer: The relative viability was 0.459.

Question: What about the relative viability (NCI-H1563; first compound 0.02 µM) of the same compound?
Answer: The relative viability was 0.941.

Question: And the relative viability (NCI-H1563; first compound 0.2 µM)?
Answer: Its relative viability is 0.778.

Question: And the relative viability (NCI-H1563; first compound 0.6325 µM)?
Answer: The relative viability was 0.831.

Question: What about the relative viability (NCI-H1563; first compound 2 µM) of the same compound?
Answer: Its relative viability is 0.775.

Question: What about the relative viability (NCI-H838; first compound 0.02 µM) of the same compound?
Answer: Its relative viability is 0.979.

Question: What about the relative viability (NCI-H838; first compound 0.2 µM) of the same compound?
Answer: The relative viability was 0.893.

Question: What about the relative viability (NCI-H838; first compound 0.6325 µM) of the same compound?
Answer: Its relative viability is 0.842.

Question: What about the relative viability (NCI-H838; first compound 2 µM) of the same compound?
Answer: Its relative viability is 0.655.

Question: What about the relative viability (SW 1573; first compound 0.02 µM) of the same compound?
Answer: The relative viability was 1.27.

Question: What about the relative viability (SW 1573; first compound 0.2 µM) of the same compound?
Answer: The relative viability was 1.1.

Question: What about the relative viability (SW 1573; first compound 0.6325 µM) of the same compound?
Answer: Its relative viability is 1.16.

Question: And the relative viability (SW 1573; first compound 2 µM)?
Answer: The relative viability was 1.14.

Question: And the relative viability (NCI-H1651; first compound 0.02 µM)?
Answer: The relative viability was 0.92.

Question: And the relative viability (NCI-H1651; first compound 0.2 µM)?
Answer: The relative viability was 0.678.

Question: What about the relative viability (NCI-H1651; first compound 0.6325 µM) of the same compound?
Answer: Its relative viability is 0.873.

Question: And the relative viability (NCI-H1651; first compound 2 µM)?
Answer: The relative viability was 0.695.

Question: And the relative viability (NCI-H2347; first compound 0.02 µM)?
Answer: Its relative viability is 0.988.

Question: And the relative viability (NCI-H2347; first compound 0.2 µM)?
Answer: Its relative viability is 0.817.

Question: And the relative viability (NCI-H2347; first compound 0.6325 µM)?
Answer: Its relative viability is 1.12.

Question: And the relative viability (NCI-H2347; first compound 2 µM)?
Answer: Its relative viability is 0.903.

Question: What about the relative viability (BEN; first compound 0.02 µM) of the same compound?
Answer: Its relative viability is 0.745.

Question: And the relative viability (BEN; first compound 0.2 µM)?
Answer: Its relative viability is 0.541.

Question: What about the relative viability (BEN; first compound 0.6325 µM) of the same compound?
Answer: The relative viability was 0.911.

Question: And the relative viability (BEN; first compound 2 µM)?
Answer: Its relative viability is 0.489.

Question: What about the relative viability (HOP-62; first compound 0.02 µM) of the same compound?
Answer: Its relative viability is 1.21.

Question: What about the relative viability (HOP-62; first compound 0.2 µM) of the same compound?
Answer: Its relative viability is 0.816.

Question: And the relative viability (HOP-62; first compound 0.6325 µM)?
Answer: Its relative viability is 1.05.

Question: What about the relative viability (HOP-62; first compound 2 µM) of the same compound?
Answer: Its relative viability is 1.21.

Question: And the relative viability (NCI-H1395; first compound 0.02 µM)?
Answer: The relative viability was 0.911.

Question: What about the relative viability (NCI-H1395; first compound 0.2 µM) of the same compound?
Answer: Its relative viability is 0.921.

Question: And the relative viability (NCI-H1395; first compound 0.6325 µM)?
Answer: The relative viability was 0.953.

Question: What about the relative viability (NCI-H1395; first compound 2 µM) of the same compound?
Answer: Its relative viability is 0.733.

Question: What about the relative viability (HCC-78; first compound 0.02 µM) of the same compound?
Answer: The relative viability was 0.822.

Question: What about the relative viability (HCC-78; first compound 0.2 µM) of the same compound?
Answer: Its relative viability is 0.481.

Question: What about the relative viability (HCC-78; first compound 0.6325 µM) of the same compound?
Answer: The relative viability was 0.686.

Question: What about the relative viability (HCC-78; first compound 2 µM) of the same compound?
Answer: The relative viability was 0.778.

Question: And the relative viability (LOU-NH91; first compound 0.02 µM)?
Answer: The relative viability was 0.824.

Question: What about the relative viability (LOU-NH91; first compound 0.2 µM) of the same compound?
Answer: Its relative viability is 0.713.

Question: And the relative viability (LOU-NH91; first compound 0.6325 µM)?
Answer: The relative viability was 0.747.

Question: What about the relative viability (LOU-NH91; first compound 2 µM) of the same compound?
Answer: The relative viability was 0.652.

Question: And the relative viability (NCI-H2126; first compound 0.02 µM)?
Answer: Its relative viability is 0.813.

Question: And the relative viability (NCI-H2126; first compound 0.2 µM)?
Answer: The relative viability was 0.686.

Question: And the relative viability (NCI-H2126; first compound 0.6325 µM)?
Answer: The relative viability was 0.732.

Question: And the relative viability (NCI-H2126; first compound 2 µM)?
Answer: Its relative viability is 0.626.

Question: And the relative viability (NCI-H1793; first compound 0.02 µM)?
Answer: The relative viability was 0.894.

Question: What about the relative viability (NCI-H1793; first compound 0.2 µM) of the same compound?
Answer: Its relative viability is 0.587.

Question: And the relative viability (NCI-H1793; first compound 0.6325 µM)?
Answer: The relative viability was 0.974.

Question: And the relative viability (NCI-H1793; first compound 2 µM)?
Answer: The relative viability was 0.76.

Question: And the relative viability (SK-LU-1; first compound 0.02 µM)?
Answer: Its relative viability is 0.818.

Question: And the relative viability (SK-LU-1; first compound 0.2 µM)?
Answer: Its relative viability is 0.572.

Question: What about the relative viability (SK-LU-1; first compound 0.6325 µM) of the same compound?
Answer: The relative viability was 0.45.

Question: And the relative viability (SK-LU-1; first compound 2 µM)?
Answer: Its relative viability is 0.406.

Question: What about the relative viability (NCI-H1355; first compound 0.02 µM) of the same compound?
Answer: The relative viability was 1.05.

Question: And the relative viability (NCI-H1355; first compound 0.2 µM)?
Answer: The relative viability was 0.956.

Question: What about the relative viability (NCI-H1355; first compound 0.6325 µM) of the same compound?
Answer: The relative viability was 1.18.

Question: And the relative viability (NCI-H1355; first compound 2 µM)?
Answer: The relative viability was 0.894.

Question: And the relative viability (CAL-12T; first compound 0.02 µM)?
Answer: Its relative viability is 0.675.

Question: And the relative viability (CAL-12T; first compound 0.2 µM)?
Answer: The relative viability was 0.678.

Question: And the relative viability (CAL-12T; first compound 0.6325 µM)?
Answer: The relative viability was 0.791.

Question: What about the relative viability (CAL-12T; first compound 2 µM) of the same compound?
Answer: Its relative viability is 0.555.

Question: And the relative viability (NCI-H322M; first compound 0.02 µM)?
Answer: Its relative viability is 0.639.

Question: And the relative viability (NCI-H322M; first compound 0.2 µM)?
Answer: Its relative viability is 0.607.

Question: What about the relative viability (NCI-H322M; first compound 0.6325 µM) of the same compound?
Answer: Its relative viability is 0.56.

Question: What about the relative viability (NCI-H322M; first compound 2 µM) of the same compound?
Answer: Its relative viability is 0.486.
